According to US9409915B2, “Substituted aza-bicyclic imidazole derivatives useful as TRPM8 receptor modulators” (Janssen Pharmaceutica NV, priority 2010, dated 2016):
Where a name gives a salt, the structure may show the parent alone.

Tests used:
canine TRPM8 = canine TRPM8 (Canis lupus familiaris, UniProt Q1A7N1); assay: In vitro canine TRPM8 functional assay (Ca2+-sensitive fluorescent dye, icilin activation); assay type: cell-based; settings: HEK293 cells stably expressing canine TRPM8, icilin-induced Ca2+ response; for IC50: eight-point concentration-response
Chain of canine TRPM8 (Q1A7N1 1-1104): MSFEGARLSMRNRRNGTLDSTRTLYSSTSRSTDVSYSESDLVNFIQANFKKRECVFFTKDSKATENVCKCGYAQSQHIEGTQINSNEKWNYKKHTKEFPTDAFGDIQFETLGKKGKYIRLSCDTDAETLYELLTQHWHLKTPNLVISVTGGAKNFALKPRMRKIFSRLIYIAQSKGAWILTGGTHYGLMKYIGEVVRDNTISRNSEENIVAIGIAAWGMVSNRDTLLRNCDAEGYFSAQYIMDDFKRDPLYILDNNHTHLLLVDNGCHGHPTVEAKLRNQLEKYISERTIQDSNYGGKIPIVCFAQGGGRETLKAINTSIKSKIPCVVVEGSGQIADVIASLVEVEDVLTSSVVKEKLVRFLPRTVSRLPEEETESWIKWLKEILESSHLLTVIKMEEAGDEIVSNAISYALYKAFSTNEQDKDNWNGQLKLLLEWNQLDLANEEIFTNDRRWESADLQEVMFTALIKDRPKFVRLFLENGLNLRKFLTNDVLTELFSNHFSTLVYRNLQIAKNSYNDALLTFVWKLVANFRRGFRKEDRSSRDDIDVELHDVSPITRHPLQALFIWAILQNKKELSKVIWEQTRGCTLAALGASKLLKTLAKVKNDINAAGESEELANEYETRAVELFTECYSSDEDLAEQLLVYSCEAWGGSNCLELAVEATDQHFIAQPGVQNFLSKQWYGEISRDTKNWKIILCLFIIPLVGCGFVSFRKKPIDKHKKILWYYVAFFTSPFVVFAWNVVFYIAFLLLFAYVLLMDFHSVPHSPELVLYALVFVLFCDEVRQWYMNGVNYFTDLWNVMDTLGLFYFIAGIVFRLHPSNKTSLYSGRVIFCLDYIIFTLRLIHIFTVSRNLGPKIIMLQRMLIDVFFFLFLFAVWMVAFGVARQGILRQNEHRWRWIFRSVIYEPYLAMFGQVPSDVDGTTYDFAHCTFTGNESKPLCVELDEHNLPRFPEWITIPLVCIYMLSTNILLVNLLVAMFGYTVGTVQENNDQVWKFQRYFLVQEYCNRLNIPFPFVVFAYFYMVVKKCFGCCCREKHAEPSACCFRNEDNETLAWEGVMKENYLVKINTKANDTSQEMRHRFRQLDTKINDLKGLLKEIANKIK

Male Sprague Dawley rats = assay: Inhibition of icilin-induced "wet-dog" shakes in rats; assay type: in vivo; settings: 10 mg/kg p.o. in 10% HP-β-CD, 60 min before icilin 3.0 mg/kg i.p.; rat wet-dog shakes
Experimental: Male Sprague Dawley rats (220-450 g, Charles River Labs, n=6-9/treatment) were used to evaluate the ability of test compounds to block icilin-induced “wet-dog” shakes (WDS). The test compound was administered in 10% hydroxypropyl-β-cyclodextrin (HP-β-CD), p.o., 60 min before icilin. Icilin was then administered in 10% solutol/H2O, at 3.0 mg/kg, i.p., and spontaneous “wet-dog” shakes were counted 10 min following the icilin injection over a 10-min period.

Row | Compound | inhibition at 0.2 µM (canine TRPM8; 0.2 μM compound) [%] | IC50 (canine TRPM8) [nM] | Icilin % Inhibition @ 1.5 h, 10 mg/kg (Male Sprague Dawley rats) [%] | % Inh @ 0.2 μM (canine TRPM8; 0.2 μM compound) [%]
1 | COc1nc(-c2ccccc2Cl)cc2nc(-c3c(C#N)c(C(C)(C)C)nn3C)[nH]c12.CS(=O)(=O)O [Compound 17, 3-tert-Butyl-5-[6-(2-chloro-phenyl)-4-methoxy-3H-imidazo[4,5-c]pyridine-2-yl]-1-methyl-1H-pyrazole-4-carbonitrile methanesulfonic acid salt] | 99 | 1.7 | 38 | 
2 | CC(C)Oc1nc(-c2ccccc2F)cc2nc(-c3c(Cl)c(C(C)(C)C)nn3C)[nH]c12 [Compound 92, 2-(5-tert-Butyl-4-chloro-2-methyl-2H-pyrazol-3-yl)-6-(2-fluorophenyl)-4-isopropoxy-3H-imidazo[4,5-c]pyridine sodium salt] | 99 | 2.8 |  | 
3 | CC(C)Oc1nc(-c2ccccc2OC(F)(F)F)cc2nc(-c3c(Cl)c(C(C)(C)C)nn3C)[nH]c12 [Compound 93, 2-(5-tert-Butyl-4-chloro-2-methyl-2H-pyrazol-3-yl)-4-isopropoxy-6-(2-trifluoromethoxyphenyl)-3H-imidazo[4,5-c]pyridine sodium salt] | 99 | 1.2 |  | 
4 | Cn1nc(C(C)(C)C)c(Cl)c1-c1nc2nc(-c3ccccc3OC(F)(F)F)cnc2[nH]1 [Compound 94, 2-(5-tert-Butyl-4-chloro-2-methyl-2H-pyrazol-3-yl)-5-(2-trifluoromethoxy-phenyl)-1H-imidazo[4,5-b]pyrazine] | 99 | 22.5 |  | 
5 | Cn1nc(C(C)(C)C)c(Cl)c1-c1nc2nc(-c3ccccc3C(F)(F)F)cnc2[nH]1 [Compound 95, 2-(5-tert-butyl-4-chloro-2-methyl-2H-pyrazol-3-yl)-6-(2-trifluoromethyl-phenyl)-1H-imidazo[4,5-b]pyrazine] | 100 | 27 |  | 
6 | COc1nc(-c2ccccc2Cl)cc2nc(-c3csc(C(C)C)c3)[nH]c12 [Compound 98, 6-(2-Chloro-phenyl)-2-(5-isopropyl-thiophen-3-yl)-4-methoxy-3H-imidazo[4,5-c]pyridine] | 100 | 14 |  | 
7 | COc1nc(-c2ccccc2Cl)cc2nc(-c3cnn(C(C)(C)C)c3C)[nH]c12 [Compound 100, 2-(1-tert-Butyl-5-methyl-1H-pyrazol-4-yl)-6-(2-chloro-phenyl)-4-methoxy-3H-imidazo[4,5-c]pyridine sodium salt] | 94 | 61.3 |  | 
8 | COc1nc(-c2ccccc2Cl)cc2nc(-c3cnn(C(C)(C)C)c3)[nH]c12 [Compound 102, 2-(1-tert-Butyl-1H-pyrazol-4-yl)-6-(2-chloro-phenyl)-4-methoxy-3H-imidazo[4,5-c]pyridine sodium salt] | 70 | 120 |  | 
9 | Cn1nc(C(C)(C)C)c(Cl)c1-c1nc2nc(-c3ccccc3Cl)cnc2[nH]1 [Compound 110] |  | 24 |  | 99
10 | COc1nc(-c2ccccc2Cl)cc2nc(-c3nc(C(C)(C)C)cn3C)[nH]c12 [Compound 111, 2-(4-tert-Butyl-1-methyl-1H-imidazol-2-yl)-6-(2-chloro-phenyl)-4-methoxy-3H-imidazo[4,5-c]pyridine] | 62 |  |  | 
11 | COCCOc1cc(-c2ccccc2C(F)(F)F)nc2nc(-c3cc(C(C)(C)C)nn3C)[nH]c12 [Compound 112, 2-(5-tert-Butyl-2-methyl-2H-pyrazol-3-yl)-7-(2-methoxy-ethoxy)-5-(2-trifluoromethyl-phenyl)-1H-imidazo[4,5-b]pyridine methanesulfonic acid salt] | 98 | 19 |  | 
12 | Cn1nc(C(C)(C)C)c(Cl)c1-c1nc2nc(-c3ccccc3C(F)(F)F)cc(Cl)c2[nH]1 [compound 5, hydrochloride] | 99 |  |  | 
13 | Cn1nc(C(C)(C)C)c(Cl)c1-c1nc2cc(-c3ccccc3C(F)(F)F)nc(C#N)c2[nH]1 [compound 60, 2-(5-tert-butyl-4-chloro-2-methyl-2H-pyrazol-3-yl)-6-(2-trifluoromethyl-phenyl)-3H-imidazo[4,5-c]pyridine-4-carbonitrile benzenesulfonic acid salt] | 99 |  |  | 
